# From ChEMBL document CHEMBL1201862, “PubChem BioAssay data set” (2004)
# Active and inactive are the calls of the source.
# Tests used:
# [1] = viability loss in HEK293 kidney cells – cell-based, cherry-picks, set 5, cytotoxicity control, dose response (AID 1053117); format: functional
# [2] = HGIII-sPLA2 enzyme inhibition potency – biochemical, QFRET, IC50, dose response (AID 743457);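 note: green fluorescence rise as the enzyme cleaves BODIPY PC-A2 in liposomes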
# fMet-Leu-Phe receptor = fMet-Leu-Phe receptor (Homo sapiens, UniProt P21462); assay: formyl peptide receptor binders – dose response (AID 519); format: functional
# [3] = NIH3T3 cell viability loss – ATP luminescence, mouse fibroblasts, counter-screen, dose response (AID 2010); format: functional, cell-based;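 note: cells exposed to compound for about 90 hours before reading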
# [4] = target: T1, Methionyl-tRNA synthetase, putative (Trypanosoma brucei brucei, UniProt Q38C91); format: functional, Trypanosoma brucei brucei strain 927/4 GUTat10.1
# T1 sequence (Q38C91 whole entry): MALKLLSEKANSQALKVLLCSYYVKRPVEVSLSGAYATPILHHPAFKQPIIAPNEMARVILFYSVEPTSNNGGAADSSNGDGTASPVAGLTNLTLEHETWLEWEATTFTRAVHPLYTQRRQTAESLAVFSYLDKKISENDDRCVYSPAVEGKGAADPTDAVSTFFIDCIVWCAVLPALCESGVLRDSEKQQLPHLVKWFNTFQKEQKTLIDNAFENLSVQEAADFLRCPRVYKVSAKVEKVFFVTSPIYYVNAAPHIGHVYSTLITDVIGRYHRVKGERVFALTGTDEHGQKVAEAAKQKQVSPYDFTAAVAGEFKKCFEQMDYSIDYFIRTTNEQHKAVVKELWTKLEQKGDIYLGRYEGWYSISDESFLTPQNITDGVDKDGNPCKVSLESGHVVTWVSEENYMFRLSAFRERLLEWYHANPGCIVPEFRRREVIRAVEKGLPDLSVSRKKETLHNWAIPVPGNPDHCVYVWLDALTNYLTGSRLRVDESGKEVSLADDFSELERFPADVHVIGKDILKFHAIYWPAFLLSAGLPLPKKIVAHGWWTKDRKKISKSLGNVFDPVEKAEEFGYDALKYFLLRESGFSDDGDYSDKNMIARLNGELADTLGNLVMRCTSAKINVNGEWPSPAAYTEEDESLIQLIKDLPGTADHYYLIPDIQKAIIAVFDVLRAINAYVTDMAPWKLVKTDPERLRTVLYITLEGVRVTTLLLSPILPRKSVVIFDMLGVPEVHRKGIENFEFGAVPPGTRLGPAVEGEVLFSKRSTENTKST
# [5] = target: Disintegrin and metalloproteinase domain-containing protein 17 (Homo sapiens, UniProt P78536); assay: inhibition of ADAM17 substrate cleavage – biochemical, quenched FRET substrate, counter-screen for ADAM10 exosite inhibitor project, dose response (AID 743253)
# [6] = target: T1, Methionyl-tRNA synthetase, putative; format: functional, Trypanosoma brucei brucei strain 927/4 GUTat10.1; remark: listed apart in the source
# [7] = Counterscreen for inhibitors of Trypanosoma brucei methionyl tRNA synthetase (MetRS): Luminescence-based cell-based high throughput dose response assay to identify compounds that are cytotoxic to Jurkat human T lymphocyte cells.; format: functional
# [8] = potency of ADAM10 substrate cleavage blockers – biochemical, QFRET, dose response (AID 743254);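 note: ADAM10 enzyme with the DM2 quenched FRET peptide as substrate; EDANS fluorescence gain as the protease cuts the substrate; inhibitor potency against ADAM10 proteolytic activity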
# [9] = Trypanosoma cruzi growth suppression in host cells – NIH3T3 host cells, beta-gal luminescence, confirmation (AID 2044); format: functional, cell-based;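 note: intracellular parasites grown in NIH/3T3 mouse fibroblasts as host cells; luminescent beta-galactosidase reporter signal from transgenic T. cruzi replicating inside host cells; inhibitors lower the luminescence signal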
# BJ = assay: growth inhibition of engineered Ras-driven BJ cells – cell-based, alamar blue fluorescence, cherrypicked samples, dose response (AID 2631); format: functional; conditions: Homo sapiens;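 note: confirmatory dose-response assay in RAS-dependent BJ fibroblasts engineered with TERT, LT and ST, with cytotoxicity read by fluorescence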
# [10] = viability loss in human hepatoma cells – cell-based, CellTiter-Glo luminescence, cherry-pick, set 2, cytotoxicity control, dose response (AID 743395); format: functional
# Paired box protein Pax-8 = Paired box protein Pax-8 (Homo sapiens, UniProt Q06710); assay: PAX8 transcriptional activity inhibition in RMG-I – RMG-I cells, luciferase, cherry-pick, dose response (AID 687027); format: functional, cell-based;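 note: luciferase reporter driven by Pax8 target thyroperoxidase promoter measured by SteadyGlo luminescence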
# Major prion protein = Major prion protein (Homo sapiens, UniProt P04156); format: functional, cell-based
# [11] = general mammalian cell viability loss – activator set, cherry-pick, cytotoxicity control for miR-122 modulator project, dose response (AID 720690); format: functional, cell-based;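 note: HEK293T human cells scored for general mammalian cytotoxicity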
# Large T antigen = Large T antigen (Simian virus 40, UniProt P03070); format: functional, Betapolyomavirus macacae;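 note: Confirmatory-stage PubChem screen for compounds that inhibit SV40 T antigen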
# Albumin = Albumin (Bos taurus, UniProt P02769); assay: Counterscreen for inhibitors of T-cell receptor (TCR)-CD3 interaction: Fluorescence-based biochemical high throughput dose response assay to identify inhibitors of T-cell receptor (TCR)-CD3 interaction using a TAMRA-labeled BSA probe.; format: functional
# [12] = fluconazole-exposed Candida albicans growth modulators – fluorescence, retest, confirmation (AID 2467); format: functional, cell-based
# Caspase-6 = target: T2, Caspase-6 (Homo sapiens, UniProt P55212); assay: inhibition of CASP6 peptide cleavage – biochemical, VEID-R110 fluorescence, cherry-pick, dose response (AID 720632)
# T2 sequence (P55212 whole entry): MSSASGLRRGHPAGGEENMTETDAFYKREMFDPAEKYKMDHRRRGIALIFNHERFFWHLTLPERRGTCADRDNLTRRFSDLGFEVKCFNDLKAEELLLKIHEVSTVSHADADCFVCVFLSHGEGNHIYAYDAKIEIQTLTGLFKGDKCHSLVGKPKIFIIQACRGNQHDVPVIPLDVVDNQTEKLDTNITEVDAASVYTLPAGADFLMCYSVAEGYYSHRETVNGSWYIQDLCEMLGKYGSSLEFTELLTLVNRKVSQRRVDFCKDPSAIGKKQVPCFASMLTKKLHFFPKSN
# [13] = NIH-3T3 fibroblast cytotoxicity, dose response, cytotoxicity control, cell-based, fluorescence, Alamar Blue, secondary assay (AID 2327); format: functional;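 note: NIH-3T3 mouse fibroblasts cultured with fluconazole at 8 µg/mL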
# [14] = HIV-1 AD8 envelope cell-cell fusion blockers – cherry-pick, dose response (AID 652062); format: functional, cell-based;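 note: luciferase signal from cell-cell fusion driven by HIV-1 clade B AD8 Env; potency is for inhibitors of fusion seen as a drop in luminescence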
# [15] = viability loss in CEM21 cells – cell-based, CellTiter-Glo luminescence, cherry-picked, cytotoxicity control for viral fusion inhibitor project, dose response (AID 652042); format: functional;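 note: potency for signal decrease meaning cytotoxicity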
# [16] = blockers of HIV-1 envelope-mediated cell-cell fusion – cherry-pick, dose response (AID 652057); format: functional, cell-based
# [17] = blockers of HIV-1 ZM109 envelope-driven cell-cell fusion – HeLa effector, CEM target cells, luciferase, cherry-pick, dose response (AID 652058); format: functional, cell-based;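 note: luciferase signal from HIV-1 Env mediated cell-cell fusion of effector and target cells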
# [18] = off-target signal loss in HeLa-CEM21 co-culture – HeLa F-luc CTL cells, cherry-picked, counter-screen for HIV-1 Env fusion inhibitor project, dose response (AID 652040); format: functional, cell-based;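 note: potency for signal decrease marking cytotoxic or nonspecific inhibition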
# [19] = CMV-driven luciferase expression suppression in HEK293 – cell-based, luminescence, dry powder, counter-screen for Pax8 inhibitor project, dose response (AID 743020); format: functional
# [20] = general mammalian cell viability loss – inhibitor set, cherry-pick, set 2, cytotoxicity control for miR-122 modulator project, dose response (AID 720697); format: functional, cell-based
# Fatty acid synthase = Fatty acid synthase (Homo sapiens, UniProt P49327); assay: inhibition of human FAS-TE enzyme activity – biochemical, endpoint fluorescence intensity, powder samples, SAR follow-up (AID 652164); format: functional
# [21] = kidney cell line viability loss – HEK293T, luminescence plate reader, powder samples, set 4, cytotoxicity control, dose response (AID 651863); format: functional, cell-based; conditions: HEK293
# [22] = target: Endoplasmic reticulum aminopeptidase 1 (Homo sapiens, UniProt Q9NZ08); assay: inhibition of human ERAP1 enzyme activity – biochemical, cherry-pick, set 2, plate reader, dose response (AID 743314)
# [23] = A Cell-Based Confirmatory Screen for Compounds that Inhibit VEEV, TC-83 (3).; format: functional
# [24] = dual-tagged ARNT PAS-B bead signal quenchers – biochemical, dry powder, artefact control for ARNT/TACC3 disruptor project, dose response (AID 720564)
# [25] = ATP-based viability loss in HeLa cells – cell-based, CellTiter-Glo luminescence, dry powder, set 2, cytotoxicity control, dose response (AID 720593); format: functional
# [26] = Counterscreen for […] of the human trace amine associated receptor 1 (TAAR1): Fluorescence-based cell-based high throughput dose response assay to identify nonselective Ga16 agonists.; format: functional
# [27] = target: T3, Trace amine-associated receptor 1 (Homo sapiens, UniProt Q96RJ0); assay: Fluorescence-based cell-based high throughput dose response assay to identify antagonists of the human trace amine associated receptor 1 (TAAR1).; format: functional
# T3 sequence (Q96RJ0 whole entry): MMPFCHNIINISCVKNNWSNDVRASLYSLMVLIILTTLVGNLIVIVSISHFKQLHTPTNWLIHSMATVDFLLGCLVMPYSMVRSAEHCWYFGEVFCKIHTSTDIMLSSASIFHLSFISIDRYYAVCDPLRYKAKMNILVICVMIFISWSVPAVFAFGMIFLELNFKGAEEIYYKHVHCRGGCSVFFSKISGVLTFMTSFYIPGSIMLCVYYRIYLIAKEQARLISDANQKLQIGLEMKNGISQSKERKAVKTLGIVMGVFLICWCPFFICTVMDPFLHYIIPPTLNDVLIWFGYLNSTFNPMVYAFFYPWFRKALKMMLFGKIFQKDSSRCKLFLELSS
# [28] = target: T3, Trace amine-associated receptor 1; assay: Counterscreen for antagonists of the human trace amine associated receptor 1 (hTAAR1): Fluorescence-based cell-based high throughput dose response assay to identify TAAR1 Agonists.; format: functional
# [29] = Counterscreen for antagonists of the human trace amine associated receptor 1 (hTAAR1): Fluorescence-based cell-based high throughput dose response assay to identify nonselective Ga16 antagonists.; format: functional
smiles,measurement,setting,value
Cc1cccc(NC(=O)c2ccc(S(=O)(=O)N3CCCCC3)cc2)n1,AC50,[1],> 52 µM (inactive)
CCCCN=C(S)NNC(=O)c1csc(C)c1C,IC50,[2],> 122 µM (inactive)
CCC(Sc1nc2c(c(=O)[nH]1)CCC2)C(=O)Nc1cccc(OC)c1 (centres undefined),Ki,fMet-Leu-Phe receptor,35.5 µM (inactive)
COc1ccccc1NS(=O)(=O)c1cccc(NC(=O)Nc2cccc(Cl)c2)c1,EC50,[3],> 60 µM (not active)
same,IC50,[4],15.7 µM (inactive)
same,IC50,[5],> 69.5 µM (inactive)
same,IC50,[6],12 µM (inactive)
same,IC50,[7],41.1 µM (inactive)
same,IC50,[8],12 µM (inactive)
same,EC50,[9],2.16 µM (active)
COc1ccc(C(=O)c2cc([N+](=O)[O-])ccc2N2CCOCC2)cc1,EC50,BJ,< 0.104 µM (active)
same,AbsAC35_uM,[10],60.09 µM
same,AC50,Paired box protein Pax-8,3.21 µM (active)
Cc1cc(NC(=O)CCC(=O)N(c2ccccc2)C(C(=O)NC2CCCC2)c2cccs2)no1 (centres undefined),IC50,cells,> 138 µM (inactive)
same,IC50,Major prion protein,16.2 µM (inactive)
CN[C@H]1C[C@H]2c3[nH]c4ccc(-c5ccc(OC)cc5)cc4c3CCN2C(=O)[C@H]1[C@H](C)O,AC50,[11],15.8 µM (active)
C/C(=N/NC(=O)c1cc(O)c(O)c(O)c1)c1ccc([N+](=O)[O-])cc1,IC50,Large T antigen,8.68 µM (active)
same,IC50,Albumin,> 94.1 µM (inactive)
same,EC50,[12],> 38 µM (not active)
same,AC50,Caspase-6,27.5 µM (active)
same,EC50,[13],> 160 µM (inactive)
C[C@H]1CNC(=O)c2c(C(=O)N3CCN(C(=O)OC(C)(C)C)CC3)ncn21,AC50,[14],4.38 µM (active)
same,AC50,[15],47.9 µM (active)
same,AC50,[16],0.805 µM (active)
same,AC50,[17],3.02 µM (active)
same,AC50,[18],2.18 µM (active)
C[C@@H]1CCCCO[C@@H](CN(C)C(=O)Nc2ccc(F)cc2)[C@H](C)CN([C@@H](C)CO)C(=O)c2cc(NC(=O)Nc3ccc(C(F)(F)F)cc3)ccc2O1,AC50,[19],67.7 µM (active)
same,AC50,Paired box protein Pax-8,4.11 µM (active)
CCC(=O)NC[C@@H]1[C@@H](c2ccc(C3=CCCC3)cc2)[C@@H](CO)N1C(C)=O,AC50,[20],9.42 µM (active)
CC(=O)Nc1nc(-c2ccc(S(=O)(=O)N3CCSCC3)cc2)cs1,IC50,Fatty acid synthase,> 80 µM (inactive)
COC(=O)C(C(=O)OC)c1cc(NS(=O)(=O)c2c(C)cc(C)cc2C)c2ccccc2c1O,AC50,[21],27 µM (active)
COC(=O)[C@H]1[C@H](CO)[C@H]2Cn3c(ccc(-c4ccncc4)c3=O)[C@H]2N1Cc1ccccc1F,AC50,[22],10.2 µM (active)
CC(C)N1CCN(Cc2nc3ccc([N+](=O)[O-])cc3c(=O)n2-c2ccccc2F)CC1,IC50,[23],3.13 µM (active)
O=C(Nc1nc(-c2ccncc2)cs1)c1cccc(S(=O)(=O)N2CCOCC2)c1,AC50,[24],110 µM (active)
same,AC50,[25],> 52 µM (inactive)
Cc1cc(/C=N\NC(=O)CC(=O)NC2CCCCC2)c(C)n1-c1ccc(Cl)c(Cl)c1,EC50,[26],> 29.9 µM (inactive)
same,IC50,[27],0.915 µM (active)
same,EC50,[28],7.54 µM (active)
same,IC50,[29],15.3 µM (inactive)
